Molecules are shown by their SMILES.

This series in a line: gradient 5% acetonitrile 3 min, to 50% in 2 min, to 85% in 15 min, held 3 min, 100 µL/min. Particulars: column: Zorbax Extend-C18 2.1 x 50 mm; eluents: water / acetonitrile, 0.1% formic acid. The method, boiled down:
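Pure standards were run in mixtures of ~100 molecules by HPLC coupled to a quadrupole time-of-flight mass spectrometer. The column was a Zorbax Extend-C18 (2.1 × 50 mm, 1.8 μm) at 100 μL/min, with water and acetonitrile each containing 0.1% formic acid, in positive and negative ionization mode. Dead and dwell volumes were 40 μL and 900 μL. Retention time was taken from computationally picked adduct peaks, each manually inspected, with data collected over 3 months.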
With `CCOC(=O)c1c(S(=O)(=O)N2CCC(C(=O)Nc3ccccc3OC)CC2)c(C)n(CC)c1C`, the RP-LC retention time was determined as 891 s. With `COc1ccc(-c2noc(CCC(=O)O)n2)cc1` the figure was 693 s; with `COc1ccc(-c2nnc(SCC(=O)Nc3ccc(S(N)(=O)=O)cc3)o2)cc1`, 736 s; with `Fc1cccc(-c2noc(-c3ccc(NCCCN4CCC(N5CCCCC5)CC4)nc3)n2)c1`, 614 s. The same measure for `CCn1c(CNC(=O)C2CCC2)nc2c1CN(S(=O)(=O)c1ccc(F)cc1)CC2`: 644 s; for `CC1(C)CC(NC(=O)COc2ccccc2Cl)CC(C)(C)N1`: 618 s. The same measure for `CN[C@@H](C)C(=O)N[C@H]1CN(C(=O)CC(C)C)CC[C@H]2CC[C@@H](C(=O)NC(c3ccccc3)c3ccccc3)N2C1=O`: 757 s. Take `O=c1cc(-c2ccccc2)nc2n1CCN2CCCN1CCOCC1`: the RP-LC retention time amounted to 582 s. With `COc1cccc(NC(=O)Cn2nc3cc(C)nc(N4CCCC4)n3c2=O)c1` the figure was 760 s.

Molecule `Cc1cc(=O)n(CC(=O)Nc2ccccc2F)c(N)n1` had an RP-LC retention time of 581 s. The same measure for `Cc1cccc(NS(=O)(=O)c2ccc3nncn3c2)c1`: 673 s. The same measure for `COc1ccc(-c2nc(Nc3ccc(C)cc3)sc2C)cc1`: 1060 s; for `O=C1CCc2cc(S(=O)(=O)NCCc3ccccc3)cc3c2N1CCC3`: 840 s; for `COc1ccc(CCNC(=O)C2CCCN(S(=O)(=O)c3ccc(OC)c(Cl)c3)C2)cc1` (centres undefined): 938 s. With `CCN1CCN(CCCNS(=O)(=O)c2cccc(-c3nc(-c4ccc(C)cc4)no3)c2)CC1` the figure was 690 s; with `CC(C)(C)CCN1CCC(F)(c2nc(-c3ccccc3)no2)CC1`, 789 s; with `O=C(Cc1ccc(NC(=O)c2ccc(F)cc2Cl)cc1)NC1CC1`, 681 s. As to `CCOc1ccc(S(=O)(=O)N2CCc3c(c(-c4nnc(-c5ccccc5)o4)nn3C)C2)cc1`, the RP-LC retention time was determined as 996 s. The same measure for `CCc1nc(-c2csc(S(=O)(=O)N3CCCC(C(=O)Nc4cccc(C)c4)C3)c2)no1` (centres undefined): 983 s.

In the case of `Cc1ccc2[nH]cc(CCNC(=O)CCn3c(=O)c(C)nc4ccccc43)c2c1`, the RP-LC retention time was determined as 781 s. With `COCCn1c(SCc2nc(-c3ccccc3)no2)nc2cc3c(cc2c1=O)OCO3` the figure was 1040 s; with `Cc1nc2nc(-c3ccccc3)nn2c(C)c1CC(=O)N(CCO)Cc1ccccc1`, 740 s; with `O=C(NCCC1CCN(C(=O)Nc2ccc(F)cc2)CC1)c1ccoc1`, 716 s. With `Cc1ccc(-n2cc(C(=O)Oc3cccnc3)c3ccccc3c2=O)cc1` the figure was 978 s. The same measure for `CCCCCCCCc1ccc(CCC(N)(CO)CO)cc1`: 966 s; for `CCOCCCNC(=O)N1[C@H]2CC[C@@H]1c1cnc(-c3ccccc3)nc1C2`: 778 s.

As for `Cc1cc(C)n(C(=O)c2cn(-c3ccc(S(=O)(=O)N4CCCC(C)C4)cn3)cn2)n1` (centres undefined), the RP-LC retention time was 1020 s. The same measure for `Cc1sc(NC(=O)CCCc2nc(-c3ccccc3)no2)nc1-c1ccc(Cl)cc1`: 1190 s. With `COC(=O)c1ccc(NC(=O)Cn2cccc(-c3nc(-c4ccc(Cl)cc4)no3)c2=O)cc1`, the RP-LC retention time came to 934 s. In turn, `CCCn1ccc2sc(C)c(C(=O)NCCN3CCCCCC3)c2c1=O` yielded an RP-LC retention time of 657 s. The same measure for `O=C1CCCN1CCCN1C(=O)[C@H]2CN(Cc3ccccc3Cl)C[C@H]2C1=O`: 596 s; for `CCn1c(=O)c2ccccc2n(Cc2nc(-c3ccc(SC)cc3)no2)c1=O`: 926 s. The same measure for `CCOc1cccc(-c2noc(Cn3c(=O)n(-c4ccc(C)cc4)c(=O)c4sccc43)n2)c1`: 1090 s; for `COc1cc(OC)c(NC(=O)Nc2cc(C)on2)cc1Cl`: 865 s; for `Cc1ccc(C(=O)Nc2cc(-c3cccs3)no2)cc1`: 993 s.

`CCOc1ccccc1-n1ccn(Cc2nc(-c3ccccc3)no2)c(=O)c1=O` showed an RP-LC retention time of 848 s. `CCCN1CCN(CCCNC(=O)C2CCCN(c3nc4cccnc4s3)C2)CC1` (centres undefined) showed an RP-LC retention time of 573 s.

`COc1ccccc1NC(=O)N1CCCC1c1nncn1C1CCCC1` (centres undefined) showed an RP-LC retention time of 697 s. With `O=C(c1cccn2c(=O)c3c4c(sc3nc12)CCCC4)N1CCN(c2ccccn2)CC1` the figure was 656 s. As for `COc1ccc(-c2noc(Cn3cnc4c(oc5ccccc54)c3=O)n2)cc1OC`, the RP-LC retention time turned out to be 846 s. The same measure for `CC1Oc2ccc(-c3csc(NC(=O)c4ccccc4Cl)n3)cc2N(C)C1=O` (centres undefined): 968 s; for `O=C(Nc1ccc(-c2ccn[nH]2)cc1)c1cccnc1`: 678 s; for `COc1ccc2nc(NC(=O)Cc3csc4nc(-c5ccccc5)cn34)sc2c1`: 810 s. With `COc1ccc(S(=O)(=O)N2CCC(C(=O)NCCc3csc(-c4ccccc4)n3)CC2)cc1` the figure was 912 s; with `COC(=O)C1=CN(c2ccccc2OC)c2cc(F)ccc2S1(=O)=O`, 860 s; with `Cc1cc(N2CCN(S(=O)(=O)c3ccc(F)c(F)c3)CC2)nc(N2CCCCC2)n1`, 775 s. With `O=C(c1sc2cccc(F)c2c1Cl)N1CCN(c2ncccn2)CC1` the figure was 893 s; with `CCCN1C(=O)c2cc(S(=O)(=O)Nc3ccc(C)cc3F)ccc2Oc2cccnc21`, 1080 s; with `Cc1ccc(NC(=O)c2cn(C)nc2S(=O)(=O)N2CCSCC2)cc1`, 928 s. Consider `CCCCN(CC)CCNC(=O)C1CCC(=O)N(c2ccc(OC)cc2)C1c1ccc(F)cc1` (centres undefined), for which the RP-LC retention time came to 633 s. The same measure for `O=C(NCc1ccc(F)cc1F)c1ccc2c(c1)nc1n2CCN(C2CCCCC2)C1=O`: 806 s. Consider `O=S(=O)(NCC1CCN(Cc2ccc(Cl)cc2)CC1)c1ccc2c(c1)-c1oncc1CO2`, for which the RP-LC retention time came out at 708 s. With `COC(=O)c1ccc(-c2nc3cnccn3c2Nc2ccc(C(C)C)cc2)cc1` the figure was 1070 s; with `COc1ccc(NC(=O)C2CCN(c3cnc4nc(C)c(C)nc4c3)CC2)cc1F`, 718 s.

Turning to `COc1cccc(-c2noc(C3CCCN3C(=O)Nc3ccccc3OC)n2)c1` (centres undefined), the RP-LC retention time stood at 1020 s. With `CCNC(=O)N(C)Cc1ccc(C)s1` the figure was 722 s. With `Cc1ccsc1C(=O)Nc1ccc2ncnc(N3CCCCC3)c2c1` the figure was 687 s. With `COc1ccc(-c2nc(NCCN3CCCCC3C)c3ccccc3n2)cc1` (centres undefined) the figure was 598 s; with `O=C(NCCc1c[nH]c2ccccc12)c1cc2cccnc2n(Cc2ccccc2)c1=O`, 1070 s; with `COc1ccc(OC)c(NC(=O)C2CCN(S(=O)(=O)c3cc(-c4noc(C)n4)cs3)CC2)c1`, 931 s. The molecule `O=C(c1ccc(N2CCNC(c3ccccc3)C2)nc1)N1CCSCC1` (centres undefined) came in with an RP-LC retention time of 606 s. With `Cc1nc2c(c(=O)n1CC(=O)NCc1cccs1)CCN(Cc1ccccc1)C2` the figure was 608 s; with `CCCn1c(C)cnc1C1CN(C(=O)c2cccs2)C1`, 586 s.

`O=C(Nc1ccc(C(=O)N2CCN(c3ccccn3)CC2)cc1)C1=CSCCO1` yielded an RP-LC retention time of 611 s.

The molecule `COc1cc(=O)n2c(c1C(=O)Nc1cccc(SC)c1)CCCC2` registered an RP-LC retention time of 734 s.

Molecule `COc1ccc(C2Cn3nnc(-c4nc(-c5ccc(F)c(F)c5)no4)c3CO2)cc1` (centres undefined) came in with an RP-LC retention time of 1180 s. With `Cc1ccc(N2CC(C(=O)N3CCCC3c3nc(-c4cccc(C)c4)no3)CC2=O)cc1` (centres undefined) the figure was 984 s; with `COc1ccc(-c2noc(-c3ccc(N4CCN(c5ncccn5)CC4)nn3)n2)cc1`, 923 s. The same measure for `Cc1cc(C(=O)Nc2ccc(CC(=O)NCc3cccs3)cc2)c(C)o1`: 762 s; for `O=C(CCCCCCC(=O)Nc1ccc(F)cc1)NO`: 628 s; for `CCC(=O)N1CCc2cc(S(=O)(=O)CCC(=O)NC3CCCc4ccccc43)ccc21` (centres undefined): 860 s. With `O=c1c2ccccc2ncn1Cc1noc(Cc2ccc(Br)cc2)n1` the figure was 871 s; with `CCC1CN2C=NC(N3CCN(C(=O)NCc4cccc(F)c4)CC3)=CC2=N1` (centres undefined), 615 s. For the molecule `CC(C)CN1CCn2cc(C(=O)NCc3cccc(Br)c3)nc2C1`, the RP-LC retention time stood at 656 s. Molecule `O=C(CCC[C@@H]1[C@H]2CCCN3CCC[C@@H](CN1C(=O)C1CC1)[C@@H]23)Nc1ccccc1` had an RP-LC retention time of 609 s. With `COc1ccc(-c2c(C)noc2NC(C)=O)cc1S(=O)(=O)N1CCN(c2ccccn2)CC1` the figure was 612 s; with `Cc1nc(-c2ccncc2)nc2c1CCC(=O)N2Cc1ccccn1`, 559 s. The same measure for `CC(NC(=O)c1cc2ccccc2[nH]1)C(=O)N1CCN(c2ccccn2)CC1` (centres undefined): 612 s. For `CC(C)Cc1nc(CNC(=O)C2CCCCC2)no1`, the RP-LC retention time stood at 836 s.

These data come from the METLIN SMRT retention time set (Domingo-Almenara et al. 2019).
